Data reported in ChEMBL document CHEMBL1201862, “PubChem BioAssay data set” (2004).
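Tested at 5 concentrations; 48 h exposure; 96-well plates; endpoints linearly interpolated, else capped at highest concentration. Abbreviation: GI50, concentration required for 50% inhibition of growth.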 Activity calls are given as the source filed them. Rule as the data show it: active = GI50 up to about 1.1 µM and inactive = higher.

How the values were obtained:
Assay in all cases: NCI-60 cell line screen, 48 h
A549 = test system: A549
ACHN = test system: ACHN
DU-145 = test system: DU-145
HCT-116 = test system: HCT-116
HL-60 = test system: HL-60
HT-29 = test system: HT-29
Hs-578T = test system: Hs-578T
LOX IMVI = test system: LOX IMVI
MDA-MB-435 = test system: MDA-MB-435
MOLT-4 = test system: MOLT-4
Malme-3M = test system: Malme-3M
NCI-H226 = test system: NCI-H226
NCI-H23 = test system: NCI-H23
OVCAR-5 = test system: OVCAR-5
PC-3 = test system: PC-3
RXF 393 = test system: RXF 393
SF-268 = test system: SF-268
T47D = test system: T47D
UACC-257 = test system: UACC-257
UO-31 = test system: UO-31

SMILES	GI50 (A549)	GI50 (ACHN)	GI50 (DU-145)	GI50 (HCT-116)	GI50 (HL-60)	GI50 (HT-29)	GI50 (Hs-578T)	GI50 (LOX IMVI)	GI50 (MDA-MB-435)	GI50 (MOLT-4)	GI50 (Malme-3M)	GI50 (NCI-H226)	GI50 (NCI-H23)	GI50 (OVCAR-5)	GI50 (PC-3)	GI50 (RXF 393)	GI50 (SF-268)	GI50 (T47D)	GI50 (UACC-257)	GI50 (UO-31)
O=c1c2ccccc2n2nnc3ccc(NCCNCCO)c1c32	1.16 µM (inactive)	0.824 µM (active)	0.112 µM (active)	1.29 µM (inactive)	1.71 µM (inactive)	0.74 µM (active)	2.03 µM (inactive)	1.18 µM (inactive)	1.34 µM (inactive)	0.361 µM (active)	1.87 µM (inactive)	2.29 µM (inactive)	2.31 µM (inactive)	2.34 µM (inactive)	1.29 µM (inactive)	1.87 µM (inactive)	1.71 µM (inactive)	5.82 µM (inactive)	3.32 µM (inactive)	0.863 µM (active)
CC1OC(OC2C(O)C(O)C(O)C(O)C2O)C(N)CC1NC(=N)C(=O)O (centres undefined)	> 100 µM (inactive)	> 100 µM (inactive)	> 100 µM (inactive)	> 100 µM (inactive)	> 100 µM (inactive)	> 100 µM (inactive)	> 100 µM (inactive)	> 100 µM (inactive)	> 100 µM (inactive)	> 100 µM (inactive)	> 100 µM (inactive)	> 100 µM (inactive)	> 100 µM (inactive)	> 100 µM (inactive)	> 100 µM (inactive)	> 100 µM (inactive)	> 100 µM (inactive)	> 100 µM (inactive)	> 100 µM (inactive)	> 100 µM (inactive)
CCOC(=O)c1c(N2CCCC2)ncn(C)c1=S	> 100 µM (inactive)	> 100 µM (inactive)	> 100 µM (inactive)	> 100 µM (inactive)	> 100 µM (inactive)	> 100 µM (inactive)	> 100 µM (inactive)	> 100 µM (inactive)	> 100 µM (inactive)	> 100 µM (inactive)	> 100 µM (inactive)	> 100 µM (inactive)	> 100 µM (inactive)	> 100 µM (inactive)	> 100 µM (inactive)	> 100 µM (inactive)	> 100 µM (inactive)	> 100 µM (inactive)	> 100 µM (inactive)	41.6 µM (inactive)
Cc1cc(C)c(S(=O)(=O)N(CCCN)OCCCON(CCCN)S(=O)(=O)c2c(C)cc(C)cc2C)c(C)c1	1.77 µM (inactive)	15.3 µM (inactive)	1.71 µM (inactive)	1.75 µM (inactive)	1.91 µM (inactive)	1.67 µM (inactive)	1.49 µM (inactive)	1.87 µM (inactive)	2.03 µM (inactive)	2.03 µM (inactive)	0.879 µM (active)	2.2 µM (inactive)	2.18 µM (inactive)	2.2 µM (inactive)	1.82 µM (inactive)	4.6 µM (inactive)	1.42 µM (inactive)	1.61 µM (inactive)	1.82 µM (inactive)	16.7 µM (inactive)
CC(C)=CC[C@]12CCN(C)[C@H]1N(S(=O)(=O)c1ccccc1)c1ccccc12	–	> 54.2 µM (inactive)	> 30.8 µM (inactive)	> 44.6 µM (inactive)	28.4 µM (inactive)	> 46.5 µM (inactive)	> 45.4 µM (inactive)	> 37.1 µM (inactive)	> 44.7 µM (inactive)	> 43.4 µM (inactive)	> 49.2 µM (inactive)	> 38.5 µM (inactive)	> 19.9 µM (inactive)	> 59.8 µM (inactive)	> 54 µM (inactive)	> 38.3 µM (inactive)	> 44.6 µM (inactive)	9.73 µM (inactive)	> 39.5 µM (inactive)	> 22.5 µM (inactive)
